Data on 32 molecules can be found in patent US10487068B2, “Pyridazine derivatives as RORc modulators” (Genentech, Inc., priority 2015, dated 2019).

pIC50: −log10 of the molar value.

This assay has as its target T1, RORc ligand binding domain (Homo sapiens, UniProt P51449).
T1 sequence (P51449 269-508 limits assumed): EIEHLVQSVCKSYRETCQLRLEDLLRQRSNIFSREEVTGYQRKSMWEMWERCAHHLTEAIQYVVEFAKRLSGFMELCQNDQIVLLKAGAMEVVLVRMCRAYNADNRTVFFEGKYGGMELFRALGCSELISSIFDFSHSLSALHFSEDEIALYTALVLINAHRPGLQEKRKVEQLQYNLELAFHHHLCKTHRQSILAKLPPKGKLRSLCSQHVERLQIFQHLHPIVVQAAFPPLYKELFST
The experiment in a line: In Vitro RORc Ligand Binding Assay. The conditions noted are these: RORc IC50, radioligand 25-[3H]hydroxycholesterol 6 nM; 0.6 ug/mL RORc receptor; 3 h at 25° C.

`CC1(C)[C@H]2CC[C@]1(c1cccc(CNC(=O)CO)n1)c1nnc(-c3c(F)cccc3F)cc12` [Example 116, N-((6-((5R,8S)-3-(2,6-difluorophenyl)-9,9-dimethyl-5,6,7,8-tetrahydro-5,8-methanocinnolin-8-yl)pyridin-2-yl)methyl)-2-hydroxyacetamide]: the pIC50 (as a rule, −log10 of the IC50, conventionally taken in molar units) is 7.82.

In the case of `CC1(C)[C@H]2CC[C@]1(c1ccnc(NCc3n[nH]c(=O)[nH]3)n1)c1nnc(-c3c(F)cccc3F)cc12` [Example 155], the negative-log IC50 (pIC50) was 7.18.

On to `Cc1nnc(-c2cccc([C@@]34CC[C@@H](c5cc(-c6c(F)cccc6F)nnc53)C4(C)C)n2)o1` [Example 102, 2-(6-((5R,8S)-3-(2,6-difluorophenyl)-9,9-dimethyl-5,6,7,8-tetrahydro-5,8-methanocinnolin-8-yl)pyridin-2-yl)-5-methyl-1,3,4-oxadiazole], for which the pIC50 is 7.67.

Regarding `CC(C)(O)c1cc(-c2cncc([C@@]34CC[C@@H](c5cc(-c6c(F)cccc6F)nnc53)C4(C)C)n2)on1` [Example 269, 2-(5-(6-((5R,8S)-3-(2,6-difluorophenyl)-9,9-dimethyl-5,6,7,8-tetrahydro-5,8-methanocinnolin-8-yl)pyrazin-2-yl)isoxazol-3-yl)propan-2-ol], the negative-log IC50 (pIC50) is 8.52.

With `CC1(C)[C@H]2CC[C@]1(c1ccnc(-n3ccnc3)n1)c1nnc(-c3c(F)cccc3F)cc12` [Example 181], the pIC50 is 8.43.

`CC1(C)[C@H]2CC[C@]1(c1cncc(-c3cnc(CO)o3)n1)c1nnc(-c3c(F)cccc3F)cc12` [Example 206, (5-(6-((5R,8S)-3-(2,6-difluorophenyl)-9,9-dimethyl-5,6,7,8-tetrahydro-5,8-methanocinnolin-8-yl)pyrazin-2-yl)oxazol-2-yl)methanol] showed a negative-log IC50 (pIC50) of 8.17.

`CC(C)(O)c1nc(-c2cncc([C@@]34CC[C@@H](c5cc(-c6c(F)cccc6F)nnc53)C4(C)C)n2)oc1CO` [Example 433, 2-(2-(6-((5R,8S)-3-(2,6-difluorophenyl)-9,9-dimethyl-5,6,7,8-tetrahydro-5,8-methanocinnolin-8-yl)pyrazin-2-yl)-5-(hydroxymethyl)oxazol-4-yl)propan-2-ol] gave a negative logarithm of the IC50 (pIC50) of 7.41.

Take `CC(C)(O)CNC(=O)c1cncc([C@@]23CC[C@@H](c4cc(-c5c(F)cccc5F)nnc42)C3(C)C)n1` [Example 86, 6-((5R,8S)-3-(2,6-difluorophenyl)-9,9-dimethyl-5,6,7,8-tetrahydro-5,8-methanocinnolin-8-yl)-N-(2-hydroxy-2-methylpropyl)pyrazine-2-carboxamide]: the pIC50 is 7.35. The pIC50 values of the last two molecules are within 0.2 log units of each other.

`CC1(C)[C@H]2CC[C@]1(c1cncc(CO)n1)c1nnc(-c3c(F)cccc3F)cc12` [Example 87, (6-((5R,8S)-3-(2,6-difluorophenyl)-9,9-dimethyl-5,6,7,8-tetrahydro-5,8-methanocinnolin-8-yl)pyrazin-2-yl)methanol] gave a negative logarithm of the IC50 (pIC50) of 7.80.

`CC1(C)[C@H]2CC[C@]1(c1ccnc(-n3ccc(C(N)=O)n3)n1)c1nnc(-c3c(F)cccc3F)cc12` [Example 291] gave a pIC50 of 7.46. This pIC50 is 0.34 log units lower than that of the molecule before.

In turn, `CC1(C)[C@H]2CC[C@]1(c1cc(C#N)nc(C#N)c1)c1nnc(-c3c(F)cccc3F)cc12` [Example 210, 4-((5R,8S)-3-(2,6-difluorophenyl)-9,9-dimethyl-5,6,7,8-tetrahydro-5,8-methanocinnolin-8-yl)pyridine-2,6-dicarbonitrile] had a negative-log IC50 (pIC50) of 6.94.

`CC1(C)[C@H]2CC[C@]1(c1ccnc(-n3cnnc3)n1)c1nnc(-c3c(F)cccc3F)cc12` [Example 151] gave a pIC50 of 7.87.

`CC(C)(O)c1noc(-c2cncc([C@@]34CC[C@@H](c5cc(-c6c(F)cccc6F)nnc53)C4(C)C)n2)n1` [Example 248, 2-(5-(6-((5R,8S)-3-(2,6-difluorophenyl)-9,9-dimethyl-5,6,7,8-tetrahydro-5,8-methanocinnolin-8-yl)pyrazin-2-yl)-1,2,4-oxadiazol-3-yl)propan-2-ol] had a negative-log IC50 (pIC50) of 7.57.

`CC1(C)[C@H]2CC[C@]1(c1cncc(-c3ccc(CS(C)(=O)=O)nc3)n1)c1nnc(-c3c(F)cccc3F)cc12` [Example 413] gave a pIC50 of 8.30.

`CC1(C)[C@H]2CC[C@]1(c1ccnc(-c3cnc(=O)[nH]c3)n1)c1nnc(-c3c(F)cccc3F)cc12` [Example 409] gave a negative logarithm of the IC50 (pIC50) of 8.11.

For `CC1(C)[C@H]2CC[C@]1(c1cc(C(=O)NC3COC3)ccn1)c1nnc(-c3c(F)cccc3F)cc12` [Example 65], the negative-log IC50 (pIC50) was 6.98.

The molecule `CC1(C)[C@H]2CC[C@]1(c1cncc(C(N)=O)n1)c1nnc(-c3c(F)cccc3F)cc12` [Example 12, 6-((5R,8S)-3-(2,6-difluorophenyl)-9,9-dimethyl-5,6,7,8-tetrahydro-5,8-methanocinnolin-8-yl)pyrazine-2-carboxamide] gave a negative logarithm of the IC50 (pIC50) of 7.74. This pIC50 is 0.76 log units higher than that of the molecule before.

For the molecule `CC1(C)[C@H]2CC[C@]1(c1cncc(N)n1)c1nnc(-c3c(F)cccc3F)cc12` [Example 33, 6-((5R,8S)-3-(2,6-difluorophenyl)-9,9-dimethyl-5,6,7,8-tetrahydro-5,8-methanocinnolin-8-yl)pyrazin-2-amine], the pIC50 was 7.66.

Turning to `COC(=O)c1nccc([C@@]23CC[C@@H](c4cc(-c5c(F)cccc5Cl)nnc42)C3(C)C)n1` [Example 160], the negative-log IC50 (pIC50) was 7.88.

As to `CC1(C)[C@H]2CC[C@]1(c1cncc(C#N)n1)c1nnc(-c3c(F)cccc3F)cc12` [Example 14, 6-((5R,8S)-3-(2,6-difluorophenyl)-9,9-dimethyl-5,6,7,8-tetrahydro-5,8-methanocinnolin-8-yl)pyrazine-2-carbonitrile], the pIC50 was 8.24.

`CC(C)(O)c1coc(-c2cncc([C@@]34CC[C@@H](c5cc(-c6c(F)cccc6Cl)nnc53)C4(C)C)n2)n1` [Example 371, 2-(2-(6-((5R,8S)-3-(2-chloro-6-fluorophenyl)-9,9-dimethyl-5,6,7,8-tetrahydro-5,8-methanocinnolin-8-yl)pyrazin-2-yl)oxazol-4-yl)propan-2-ol] had a negative-log IC50 (pIC50) of 8.48.

Consider `CC1(C)[C@H]2CC[C@]1(c1cncc(C(=O)N[C@@H]3COC(=O)C3)n1)c1nnc(-c3c(F)cccc3F)cc12` [Example 376, 6-((5R,8S)-3-(2,6-difluorophenyl)-9,9-dimethyl-5,6,7,8-tetrahydro-5,8-methanocinnolin-8-yl)-N-((S)-5-oxotetrahydrofuran-3-yl)pyrazine-2-carboxamide], for which the pIC50 was 7.57.

`C=C(C)c1cnc(-c2cncc([C@@]34CC[C@@H](c5cc(-c6c(F)cccc6F)nnc53)C4(C)C)n2)o1` [Example 343, 2-(6-((5R,8S)-3-(2,6-difluorophenyl)-9,9-dimethyl-5,6,7,8-tetrahydro-5,8-methanocinnolin-8-yl)pyrazin-2-yl)-5-(prop-1-en-2-yl)oxazole] had a pIC50 of 8.80.

Turning to `CC(C)(C#N)c1n[nH]c(-c2cccc([C@@]34CC[C@@H](c5cc(-c6c(F)cccc6F)nnc53)C4(C)C)n2)n1` [Example 357, 2-(5-(6-((5R,8S)-3-(2,6-difluorophenyl)-9,9-dimethyl-5,6,7,8-tetrahydro-5,8-methanocinnolin-8-yl)pyridin-2-yl)-1H-1,2,4-triazol-3-yl)-2-methylpropanenitrile], the pIC50 was 7.89. Compared with the last molecule, the pIC50 is 0.91 log units lower.

Regarding `CC1(C)[C@H]2CC[C@]1(c1cncc(-n3cc[nH]c3=O)n1)c1nnc(-c3c(F)cccc3F)cc12` [Example 202, 1-(6-((5R,8S)-3-(2,6-difluorophenyl)-9,9-dimethyl-5,6,7,8-tetrahydro-5,8-methanocinnolin-8-yl)pyrazin-2-yl)-1H-imidazol-2(3H)-one], the pIC50 is 7.97.

Take `Cc1ncc(-c2cncc([C@@]34CC[C@@H](c5cc(-c6c(F)cccc6F)nnc53)C4(C)C)n2)o1` [Example 118, 5-(6-((5R,8S)-3-(2,6-difluorophenyl)-9,9-dimethyl-5,6,7,8-tetrahydro-5,8-methanocinnolin-8-yl)pyrazin-2-yl)-2-methyloxazole]: the pIC50 is 7.89.

In the case of `CC1(C)[C@H]2CC[C@]1(c1cccc(-c3nnc(CO)o3)n1)c1nnc(-c3c(F)cccc3F)cc12` [Example 144, (5-(6-((5R,8S)-3-(2,6-difluorophenyl)-9,9-dimethyl-5,6,7,8-tetrahydro-5,8-methanocinnolin-8-yl)pyridin-2-yl)-1,3,4-oxadiazol-2-yl)methanol], the pIC50 is 7.94.

Molecule `Cc1nnc(-c2cccc([C@@]34CC[C@@H](c5cc(-c6c(F)cccc6F)nnc53)C4(C)C)n2)[nH]1` [Example 149] gave a pIC50 of 7.62. This pIC50 is 0.32 log units lower than that of the molecule before.

Regarding `CC1(C)[C@H]2CC[C@]1(c1cncc(C(=O)N3CC(C#N)C3)n1)c1nnc(-c3c(F)cccc3F)cc12` [Example 30, 1-(6-((5R,8S)-3-(2,6-difluorophenyl)-9,9-dimethyl-5,6,7,8-tetrahydro-5,8-methanocinnolin-8-yl)pyrazine-2-carbonyl)azetidine-3-carbonitrile], the pIC50 was 6.84.

`CC1(C)[C@H]2CC[C@]1(c1cncc(C(=O)N[C@H]3C[C@H](O)C3)n1)c1nnc(-c3c(F)cccc3F)cc12` [Example 94, 6-((5R,8S)-3-(2,6-difluorophenyl)-9,9-dimethyl-5,6,7,8-tetrahydro-5,8-methanocinnolin-8-yl)-N-((1r,3S)-3-hydroxycyclobutyl)pyrazine-2-carboxamide] had a pIC50 of 7.67.

`C[C@@H](O)Cc1n[nH]c(-c2cccc([C@@]34CC[C@@H](c5cc(-c6c(F)cccc6F)nnc53)C4(C)C)n2)n1` [Example 311, (R)-1-(5-(6-((5R,8S)-3-(2,6-difluorophenyl)-9,9-dimethyl-5,6,7,8-tetrahydro-5,8-methanocinnolin-8-yl)pyridin-2-yl)-1H-1,2,4-triazol-3-yl)propan-2-ol] had a negative-log IC50 (pIC50) of 7.15.

As for `C[C@@H](CO)NC(=O)c1ccnc([C@@]23CC[C@@H](c4cc(-c5c(F)cccc5F)nnc42)C3(C)C)c1` [Example 68], the negative-log IC50 (pIC50) is 6.26.
